Experimental data from the CheMixHub viscosity set.

Assay: xn = mol fraction of the nth substance listed

CCCCn1cc[n+](C)c1.F[B-](F)(F)F + CC#N
Conditions | viscosity [mPa·s]
298.15 K, 101 kPa, x2 = 0.0956 | 79.7

Cc1ccc(O)cc1 + CC(=O)O
viscosity [mPa·s], 101 kPa
Conditions | x2 = 0.1682 | x2 = 0.3128 | x2 = 0.4383 | x2 = 0.5483 | x2 = 0.6454 | x2 = 0.732 | x2 = 0.8094 | x2 = 0.8792 | x2 = 0.9425
298.15 K | 9.47 | 6.803 | 5.096 | 3.918 | 3.086 | 2.477 | 2.038 | 1.664 | 1.385
308.15 K | 5.756 | 4.488 | 3.585 | 2.902 | 2.385 | 1.99 | 1.674 | 1.4 | 1.18
318.15 K | 4.584 | 3.69 | 3.009 | 2.473 | 2.051 | 1.72 | 1.447 | 1.215 | 1.004

Cc1ccccc1N + CC(=O)O
viscosity [mPa·s], 100 kPa
Conditions | x1 = 0.1051 | x1 = 0.1945 | x1 = 0.2862 | x1 = 0.3854 | x1 = 0.4952 | x1 = 0.5994 | x1 = 0.6874 | x1 = 0.7658 | x1 = 0.8879
303.15 K | 1.3 | 1.51 | 1.73 | 1.96 | 2.2 | 2.43 | 2.62 | 2.79 | 3.04
308.15 K | 1.2 | 1.38 | 1.56 | 1.75 | 1.96 | 2.15 | 2.31 | 2.44 | 2.65
313.15 K | 1.11 | 1.27 | 1.42 | 1.59 | 1.76 | 1.93 | 2.06 | 2.17 | 2.34
318.15 K | 1.02 | 1.15 | 1.28 | 1.42 | 1.57 | 1.7 | 1.81 | 1.91 | 2.04

Cc1ccc(O)cc1 + CC(=O)c1ccccc1
303.15 K, 101 kPa
Conditions | viscosity [mPa·s]
x2 = 0.1137 | 10.7
x2 = 0.1526 | 10.25
x2 = 0.3364 | 8.205
x2 = 0.426 | 7.246
x2 = 0.4932 | 6.538
x2 = 0.5636 | 5.804
x2 = 0.758 | 3.823
x2 = 0.8099 | 3.31
x2 = 0.9433 | 2.026

Cc1cccc(C)c1 + CC(C)(C)O
308.15 K, 101 kPa
Conditions | viscosity [mPa·s]
x2 = 0.0642 | 0.542
x2 = 0.1265 | 0.59
x2 = 0.2068 | 0.633
x2 = 0.3029 | 0.667
x2 = 0.3766 | 0.72
x2 = 0.4301 | 0.756
x2 = 0.4992 | 0.793
x2 = 0.5983 | 0.909
x2 = 0.6924 | 1.013
x2 = 0.7966 | 1.296
x2 = 0.908 | 1.731

Nc1ccccc1Cl + CC(C)(C)O
viscosity [mPa·s], 101 kPa
Conditions | x1 = 0.0902 | x1 = 0.1802 | x1 = 0.3025 | x1 = 0.4125 | x1 = 0.5089 | x1 = 0.6158 | x1 = 0.7025 | x1 = 0.8054 | x1 = 0.9005
303.15 K | 3.13 | 3.28 | 3.44 | 3.57 | 3.66 | 3.73 | 3.78 | 3.82 | 3.84
308.15 K | 2.89 | 3.03 | 3.16 | 3.26 | 3.33 | 3.39 | 3.43 | 3.46 | 3.46
313.15 K | 2.36 | 2.52 | 2.68 | 2.79 | 2.88 | 2.98 | 3.03 | 3.09 | 3.11
318.15 K | 1.97 | 2.13 | 2.3 | 2.42 | 2.52 | 2.62 | 2.7 | 2.77 | 2.8

O=S1(=O)CCCC1 + CC(C)(C)O
viscosity [mPa·s], 101 kPa
Conditions | x1 = 0.1916 | x1 = 0.2786 | x1 = 0.3584 | x1 = 0.4717 | x1 = 0.5569 | x1 = 0.6312 | x1 = 0.732 | x1 = 0.8339 | x1 = 0.9188
303.15 K | 2.995 | 3.12 | 3.325 | 3.712 | 4.135 | 4.595 | 5.495 | 6.747 | 8.277
308.15 K | 2.513 | 2.644 | 2.844 | 3.213 | 3.602 | 4.022 | 4.832 | 5.938 | 7.276
313.15 K | 2.121 | 2.266 | 2.467 | 2.806 | 3.169 | 3.553 | 4.285 | 5.264 | 6.424

Cc1cccc(C)c1 + CC(C)CC(C)(C)C
308.15 K, 101 kPa
Conditions | viscosity [mPa·s]
x2 = 0.0651 | 0.5188
x2 = 0.1364 | 0.5018
x2 = 0.2067 | 0.4888
x2 = 0.3021 | 0.4746
x2 = 0.392 | 0.462
x2 = 0.4939 | 0.4518
x2 = 0.6007 | 0.4435
x2 = 0.7283 | 0.4385
x2 = 0.859 | 0.4352
